Our source for the IC50 and inhibition values is patent publication US20070197590A1, “SUBSTITUTED DIPIPERIDINE CCR2 ANTAGONISTS” (priority 2006, published 2007).

The first test concerns the target T1, CCR2 (Homo sapiens, UniProt P41597).
T1 construct: host or cells: THP-1 cells
T1 sequence (P41597 1-360 isoform P41597-2): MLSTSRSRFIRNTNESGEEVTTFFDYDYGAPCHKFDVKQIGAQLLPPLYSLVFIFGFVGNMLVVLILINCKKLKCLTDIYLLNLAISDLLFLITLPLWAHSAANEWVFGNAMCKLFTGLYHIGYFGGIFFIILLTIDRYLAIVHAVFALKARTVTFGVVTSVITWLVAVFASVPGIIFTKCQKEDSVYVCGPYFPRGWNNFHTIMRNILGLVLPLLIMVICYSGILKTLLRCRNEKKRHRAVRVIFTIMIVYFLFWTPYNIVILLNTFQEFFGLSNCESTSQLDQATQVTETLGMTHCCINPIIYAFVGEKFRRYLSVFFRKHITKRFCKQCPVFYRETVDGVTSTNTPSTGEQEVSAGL
Nature of the test: MCP-1 Receptor Binding Assay in THP-1 Cells. Particulars: THP-1 cells, 0.5 nM 125I labeled MCP-1, 2 hours at 30° C.; read-out: Inhibition of MCP-1 Binding IC50. The method, then:
THP-1 cells were obtained from American Type Culture Collection (Manassas, Va., USA). The THP-1 cells were grown in RPMI-1640 supplemented with 10% fetal bovine serum in a humidified 5% CO2 atmosphere at 37° C. The cell density was maintained […].
THP-1 cells were incubated with 0.5 nM ^125, labeled MCP-1 (Perkin-Elmer Life Sciences, Inc. Boston, Mass.) in the presence of varying concentrations of either unlabeled MCP-1 (R & D Systems, Minneapolis, Minn.) or test compound for 2 hours at 30° C. in a 96 well plate. Cells were then harvested onto a filter plate, dried, and 20 μL of Microscint 20 was added to each well. Plates were counted in a TopCount NXT, Microplate Scintillation & Luminescence Counter (Perkin-Elmer Life Sciences, Inc. Boston, Mass.). Blank values (buffer only) were subtracted from all values and drug treated values were compared to vehicle treated values. 1 μM cold MCP-1 was used for nonspecific binding.
Table 1 lists IC50 values for inhibition of MCP-1 binding to CCR2 obtained for test compounds of the invention.
As to `COc1ccc(C2CCN(CC(O)C3CCN(C(=O)Nc4cc(F)cc(C(F)(F)F)c4)CC3)CC2)cc1` (stereo not drawn) [Compound 91, 4-{1-hydroxy-2-[4-(4-methoxy-phenyl)-piperidin-1-yl]-ethyl}-piperidine-1-carboxylic acid (3-fluoro-5-trifluoromethyl-phenyl)-amide], the IC50 was found to be 0.81 µM.
Still for that read-out and setting: for `COc1ccc(C2CCN(CC(O)C3(O)CCN(C(=O)/C=C/c4ccc(Cl)cc4)CC3)CC2)cc1` (stereo not drawn) [Compound 92] the value was 0.48 µM.
The same measure, in the same setting: the result for `COc1ccc(C2CCN(CC(O)C3CCN(C(=S)Nc4cccc(C#N)c4)CC3)CC2)cc1` (stereo not drawn) [Compound 104, 4-{1-hydroxy-2-[4-(4-methoxy-phenyl)-piperidin-1-yl]-ethyl}-piperidine-1-carbothioic acid (3-cyano-phenyl)-amide] reads 2.7 µM; that for `COc1ccc(C2CCN(CC(O)C3CCN(C(=S)Nc4cc(F)cc(F)c4F)CC3)CC2)cc1` (stereo not drawn) [Compound 109, 4-{1-hydroxy-2-[4-(4-methoxy-phenyl)-piperidin-1-yl]-ethyl}-piperidine-1-carbothioic acid (2,3,5-trifluoro-phenyl)-amide], 4.2 µM; that for `COc1ccc(C2CCN(CC(O)C3CCN(C(=S)Nc4cc(OC)cc(OC)c4)CC3)CC2)cc1` (stereo not drawn) [Compound 111, 4-{1-hydroxy-2-[4-(4-methoxy-phenyl)-piperidin-1-yl]-ethyl}-piperidine-1-carbothioic acid (3,5-dimethoxy-phenyl)-amide], 2.6 µM.
Same read-out and setting: for `O=C(OCc1ccccc1)N1CCC(O)(C(O)CN2CCC(c3ccc(Cl)cc3)CC2)CC1` (stereo not drawn) [Compound 112, 4-{2-[4-(4-chloro-phenyl)-piperidin-1-yl]-1-hydroxy-ethyl}-4-hydroxy-piperidine-1-carboxylic acid benzyl ester] the value was 3.7 µM.
`O=C(Nc1cc(F)cc(F)c1)N1CCC(O)(C(O)CN2CCC(c3ccc(F)cc3)CC2)CC1` (stereo not drawn) [Compound 133, 4-{2-[4-(4-fluoro-phenyl)-piperidin-1-yl]-1-hydroxy-ethyl}-4-hydroxy-piperidine-1-carboxylic acid (3,5-difluoro-phenyl)-amide]: the IC50 stood at 3 µM.
Consider `COc1ccc(/C=C/C(=O)N2CCC(O)(C(O)CN3CCC(c4ccc(C(F)(F)F)cc4)CC3)CC2)cc1OC` (stereo not drawn) [Compound 140], for which the IC50 came out at 15.4 µM.
Still for that read-out and setting: the result for `O=C(Nc1ccc(F)c(F)c1)N1CCC(O)(C(O)CN2CCC(c3ccc(C(F)(F)F)cc3)CC2)CC1` (stereo not drawn) [Compound 141, 4-hydroxy-4-{1-hydroxy-2-[4-(4-trifluoromethyl-phenyl)-piperidin-1-yl]-ethyl}-piperidine-1-carboxylic acid (3,4-difluoro-phenyl)-amide] reads 2.8 µM; that for `O=C(Nc1ccc(Cl)c(Cl)c1)N1CCC(O)(C(O)CN2CCC(c3ccc(C(F)(F)F)cc3)CC2)CC1` (stereo not drawn) [Compound 143, 4-hydroxy-4-{1-hydroxy-2-[4-(4-trifluoromethyl-phenyl)-piperidin-1-yl]-ethyl}-piperidine-1-carboxylic acid (3,4-dichloro-phenyl)-amide], 1 µM.
The same measure, in the same setting: the result for `OC(CN1CCC(c2ccc(C(F)(F)F)cc2)CC1)C1(O)CCN(C(=S)Nc2ccc(Cl)c(Cl)c2)CC1` (stereo not drawn) [Compound 144, 4-hydroxy-4-{1-hydroxy-2-[4-(4-trifluoromethyl-phenyl)-piperidin-1-yl]-ethyl}-piperidine-1-carbothioic acid (3,4-dichloro-phenyl)-amide] reads 3.4 µM; that for `OC(CN1CCC(c2ccc(C(F)(F)F)cc2)CC1)C1(O)CCN(C(=S)Nc2cc(Cl)cc(Cl)c2)CC1` (stereo not drawn) [Compound 145, 4-hydroxy-4-{1-hydroxy-2-[4-(4-trifluoromethyl-phenyl)-piperidin-1-yl]-ethyl}-piperidine-1-carbothioic acid (3,5-dichloro-phenyl)-amide], 1.9 µM; that for `Nc1ccc2[nH]cc(C3CCN(CC(O)C4CCN(C(=O)OCc5ccccc5)CC4)CC3)c2c1` (stereo not drawn) [Compound 147, 4-{2-[4-(5-amino-1H-indol-3-yl)-piperidin-1-yl]-1-hydroxy-ethyl}-piperidine-1-carboxylic acid benzyl ester], 3 µM.
Still for that read-out and setting: the result for `O=C(/C=C/c1cc(F)c(F)c(F)c1)N1CCC(O)(C(O)CN2CCC(c3c[nH]c4ccc(N5CCOCC5)cc34)CC2)CC1` (stereo not drawn) [Compound 148] reads 1.1 µM; that for `O=C(/C=C/c1cc(F)cc(F)c1)N1CCC(O)(C(O)CN2CCC(c3c[nH]c4ccc(N5CCOCC5)cc34)CC2)CC1` (stereo not drawn) [Compound 149], 1.3 µM; that for `O=C(/C=C/c1cc(C(F)(F)F)cc(C(F)(F)F)c1)N1CCC(O)(C(O)CN2CCC(c3c[nH]c4ccc(N5CCOCC5)cc34)CC2)CC1` (stereo not drawn) [Compound 150], 8.7 µM.

The test is the same for the next values; noted with them: test concentration of 25 μM; given where an IC50 value was not obtained; read-out: Inhibition of MCP-1 Binding, percent inhibition.
Turning to `COc1ccc(C2CCN(CC(O)C3CCN(C(=O)Nc4ccc5c(c4)OCO5)CC3)CC2)cc1` (stereo not drawn) [Compound 100, 4-{1-hydroxy-2-[4-(4-methoxy-phenyl)-piperidin-1-yl]-ethyl}-piperidine-1-carboxylic acid benzo[1,3]dioxol-5-ylamide], the inhibition at 25 µM was 50%.
Consider `COc1ccc(C2CCN(CC(O)C3CCN(C(=O)Nc4ccc(C(F)(F)F)cc4Cl)CC3)CC2)cc1` (stereo not drawn) [Compound 101, 4-{1-hydroxy-2-[4-(4-methoxy-phenyl)-piperidin-1-yl]-ethyl}-piperidine-1-carboxylic acid (2-chloro-4-trifluoromethyl-phenyl)-amide], for which the inhibition at 25 µM came out at 51%.
Consider `COc1ccc(C2CCN(CC(O)C3(O)CCN(C(=S)Nc4cc(OC)cc(OC)c4)CC3)CC2)cc1` (stereo not drawn) [Compound 119, 4-hydroxy-4-{1-hydroxy-2-[4-(4-methoxy-phenyl)-piperidin-1-yl]-ethyl}-piperidine-1-carbothioic acid (3,5-dimethoxy-phenyl)-amide], for which the inhibition at 25 µM was found to be 43%.
Same read-out and setting: for `OC(CN1CCC(c2c[nH]c3ccc(N4CCOCC4)cc23)CC1)C1(O)CCN(c2nccc(C(F)(F)F)n2)CC1` (stereo not drawn) [Compound 122, 4-{1-hydroxy-2-[4-(5-morpholin-4-yl-1H-indol-3-yl)-piperidin-1-yl]-ethyl}-1-(4-trifluoromethyl-pyrimidin-2-yl)-piperidin-4-ol] the value was 51%; for `O=C(OCc1ccccc1)N1CCC(O)(C(O)CN2CCC(c3ccc(F)cc3)CC2)CC1` (stereo not drawn) [Compound 125, 4-{2-[4-(4-fluoro-phenyl)-piperidin-1-yl]-1-hydroxy-ethyl}-4-hydroxy-piperidine-1-carboxylic acid benzyl ester], 51%.
Same read-out and setting: the result for `O=C(OCc1ccccc1)N1CCC(O)(C(O)CN2CCC(c3ccc(C(F)(F)F)cc3)CC2)CC1` (stereo not drawn) [Compound 126, 4-hydroxy-4-{1-hydroxy-2-[4-(4-trifluoromethyl-phenyl)-piperidin-1-yl]-ethyl}-piperidine-1-carboxylic acid benzyl ester] reads 55%; that for `COc1ccc(C2CCN(CC(O)C3CCN(c4ccc([N+](=O)[O-])cn4)CC3)CC2)cc1` (stereo not drawn) [Compound 127, 2-[4-(4-methoxy-phenyl)-piperidin-1-yl]-1-(5′-nitro-3,4,5,6-tetrahydro-2H-[1,2′]bipyridinyl-4-yl)-ethanol], 59%.
The same measure, in the same setting: for `CC(C)(C)OC(=O)N1CCC(O)(C(O)CN2CCC(c3ccc(Cl)cc3)CC2)CC1` (stereo not drawn) [Compound 146, 4-{2-[4-(4-chloro-phenyl)-piperidin-1-yl]-1-hydroxy-ethyl}-4-hydroxy-piperidine-1-carboxylic acid tert-butyl ester] the value was 41%.

The term IC50 denotes the concentration at which inhibition is half-maximal. For orientation: inhibition means the share of the control response that was lost under treatment.
